Measured values published in paper PMC3634016, “The Calmodulin-Binding, Short Linear Motif, NSCaTE Is Conserved in L-Type Channel Ancestors of Vertebrate Cav1.2 and Cav1.3 Channels” (PLoS ONE, 2013).

Target: T1, Ca^2+-CaM (wild type rat calmodulin) (Rattus norvegicus, UniProt P0DP29)
T1 construct: made in house
Experiment: Isothermal titration calorimetry, peptide into Ca2+-CaM
Format: binding
Conditions: peptide titrated into Ca2+-CaM alone; 25 mM Tris-Cl pH 7.5, 75 mM NaCl, 0.5 mM CaCl2; 25°C; one-set-of-sites model; SEM printed separately in figure
Description: All peptides were resuspended in mili-Q deionized water to 1 mM stocks and stored at −80°C in small aliquots.
All ITC recordings were performed on a Microcal ITC200 from Microcal (Northampton, MA) at 25°C. In all experiments the buffer used was 25 mM Tris-Cl pH 7.5, 75 mM NaCl and 0.5 mM CaCl2 and was identical between cell and syringe. […] Data analysis was performed using Origin ITC200 Origin70 module with pre-loaded fitting equations for one- and two-sites models.

CC[C@H](C)[C@H](NC(=O)[C@H](C)NC(=O)[C@H](C)NC(=O)[C@H](CCC(N)=O)NC(=O)[C@H](Cc1c[nH]c2ccccc12)NC(=O)[C@@H](N)CO)C(=O)N[C@@H](CC(=O)O)C(=O)N[C@@H](C)C(=O)N[C@@H](C)C(=O)N[C@@H](CCCNC(=N)N)C(=O)N[C@@H](CCC(N)=O)C(=O)N[C@@H](C)C(=O)N[C@@H](CCCCN)C(=O)N[C@@H](CC(C)C)C(=O)N[C@@H](CCSC)C(=O)NCC(=O)N[C@@H](CO)C(=O)O [NSCaTECav1.2]
Kd: 830 nM
